In US20250281424A1 (New York Blood Center, Inc, priority 2020, published 2025) one finds inhibition and IC50 data, which are given here for 16 compounds.

The structures appear in SMILES notation.

For the assay, the target named is T1, human PF4 (Homo sapiens, UniProt P02776).
T1 construct: PF4 is a 70 amino acid, lysine-rich 7.8 kDa platelet-specific protein; made in house; host or cells: Escherichia coli BL21DE3 pLysS (pT7-7) and/or Drosophila S2 cells
T1 sequence (P02776 32-101): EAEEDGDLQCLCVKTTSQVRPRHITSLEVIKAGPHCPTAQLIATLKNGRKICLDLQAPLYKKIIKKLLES
In words: Inhibition of PF4 tetramer formation (BS3 cross-linking, SDS-PAGE). The assay is classed as biochemical. As to conditions: for inhibition at 5 µM: 5 μM inhibitor; for inhibition at 5 µM / inhibition at 10 µM / inhibition at 1 µM / inhibition at 3 µM: read-out: % inhibition of PF4 tetramer formation at single concentration of inhibitor; for inhibition at 10 µM: 10 μM inhibitor (column A); for IC50: read-out: IC50 of PF4 tetramer formation inhibition; for inhibition at 1 µM: 1 μM inhibitor; for inhibition at 3 µM: 3 μM inhibitor (column A). The procedure, abridged:
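Recombinant human wild-type PF4 (E. coli-expressed, heparin-purified), 10 μg/ml in PBS, incubated with compound 15 min at 37° C or 60 min at room temperature, then cross-linked with 0.2 mM BS3 for 30 min at room temperature. Reducing 12% SDS-PAGE; bands quantified as % tetramer, trimer, dimer, monomer versus compound-free control.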

With `C[C@@H](C(=O)C1C(=O)c2ccc(C(=O)c3ccc4c(c3)C(=O)C(C(=O)[C@H](C)N(C)C(=O)OC(C)(C)C)C4=O)cc2C1=O)N(C)C(=O)OC(C)(C)C` (stereo partly drawn) [Example 155, tert-butyl N-[(2S)-1-(5-{2-[(2S)-2-{[(tert-butoxy)carbonyl](methyl)amino}propanoyl]-1,3-dioxo-2,3-dihydro-1H-indene-5-carbonyl}-1,3-dioxo-2,3-dihydro-1H-inden-2-yl)-1-oxopropan-2-yl]-N-methylcarbamate], the inhibition at 5 µM stood at 95%, the inhibition at 10 µM came to 100% and the IC50 amounted to 2.1 µM.

In the case of `O=C(c1ccc2c(c1)C(=O)C(C(=O)CCC(=O)c1cccc(Cl)c1Cl)C2=O)c1ccc2c(c1)C(=O)C(C(=O)CCC(=O)c1cccc(Cl)c1Cl)C2=O` (stereo not drawn) [Example 253, 2-[4-(2,3-dichlorophenyl)-4-oxobutanoyl]-5-{2-[4-(2,3-dichlorophenyl)-4-oxobutanoyl]-1,3-dioxo-2,3-dihydro-1H-indene-5-carbonyl}-2,3-dihydro-1H-indene-1,3-dione], the inhibition at 1 µM turned out to be 20% and the inhibition at 3 µM was found to be 20%.

Take `O=C(O)CCNC(=O)C1C(=O)c2ccc(S(=O)(=O)c3ccc4c(c3)C(=O)C(C(=O)NCCC(=O)O)C4=O)cc2C1=O` (stereo not drawn) [Example 303, 3-{[5-({2-[(2-carboxyethyl)carbamoyl]-1,3-dioxo-2,3-dihydro-1H-inden-5-yl}sulfonyl)-1,3-dioxo-2,3-dihydro-1H-inden-2-yl]formamido}propanoic acid]: the inhibition at 10 µM turned out to be 60%.

With `COc1cccc(NC(=O)C2C(=O)c3ccc(C(=O)c4ccc5c(c4)C(=O)C(C(=O)Nc4cccc(OC)c4)C5=O)cc3C2=O)c1` (stereo not drawn) [Example 23, 5,5′-carbonylbis(1,3-dioxo-indan-2-carboxylic acid (3-methoxyphenyl)-amide)], the inhibition at 5 µM was 84%, the inhibition at 10 µM was 92% and the IC50 was 1.75 µM.

Regarding `O=C(c1ccc2c(c1)C(=O)C(C(=O)COc1ccccc1)C2=O)c1ccc2c(c1)C(=O)C(C(=O)COc1ccccc1)C2=O` (stereo not drawn) [Example 143, 5,5-[1,3-dioxo-2-(2-phenoxyacetyl)-2,3-dihydro-1H-indene-5-carbonyl]-2-(2-phenoxyacetyl)-2,3-dihydro-1H-indene-1,3-dione], the IC50 stood at 7 µM.

Turning to `C/C(O)=C1\C(=O)c2ccc(C#Cc3ccc4c(c3)C(=O)/C(=C(/C)O)C4=O)cc2C1=O` [Example 196], the inhibition at 5 µM came to 88%, the inhibition at 10 µM came to 96% and the IC50 was 5.3 µM.

`O=C(NC1CCCC1)C1C(=O)c2ccc(C(c3ccc4c(c3)C(=O)C(C(=O)NC3CCCC3)C4=O)(C(F)(F)F)C(F)(F)F)cc2C1=O` (stereo not drawn) [Example 109, N-cyclopentyl-5-{2-[2-(cyclopentylcarbamoyl)-1,3-dioxo-2,3-dihydro-1H-inden-5-yl]-1,1,1,3,3,3-hexafluoropropan-2-yl}-1,3-dioxo-2,3-dihydro-1H-indene-2-carboxamide]: the inhibition at 5 µM amounted to 68% and the inhibition at 10 µM was 59%.

Take `CSCC[C@H](NC(=O)OC(C)(C)C)C(=O)C1C(=O)c2ccc(C(=O)c3ccc4c(c3)C(=O)C(C(=O)[C@H](CCSC)NC(=O)OC(C)(C)C)C4=O)cc2C1=O` (stereo partly drawn) [Example 271, tert-butyl N-[(2S)-1-(5-{2-[(2S)-2-{[(tert-butoxy)carbonyl]amino}-4-(methylsulfanyl)butanoyl]-1,3-dioxo-2,3-dihydro-1H-indene-5-carbonyl}-1,3-dioxo-2,3-dihydro-1H-inden-2-yl)-4-(methylsulfanyl)-1-oxobutan-2-yl]carbamate]: the inhibition at 1 µM turned out to be 21% and the inhibition at 3 µM amounted to 38%.

Turning to `O=C(NC1CCCC1)C1C(=O)c2ccc(S(=O)(=O)c3ccc4c(c3)C(=O)C(C(=O)NC3CCCC3)C4=O)cc2C1=O` (stereo not drawn) [Example 294, N-cyclopentyl-5-{[2-(cyclopentylcarbamoyl)-1,3-dioxo-2,3-dihydro-1H-inden-5-yl]sulfonyl}-1,3-dioxo-2,3-dihydro-1H-indene-2-carboxamide], the inhibition at 1 µM came out at 45%, the inhibition at 3 µM was 88% and the IC50 worked out at 1.97 µM.

As for `COC(=O)CCCC(=O)C1C(=O)c2ccc(-c3ccc4c(c3)C(=O)C(C(=O)CCCC(=O)OC)C4=O)cc2C1=O` (stereo not drawn) [Example 226, methyl 5-[2′-(5-methoxy-5-oxopentanoyl)-1,1′,3,3′-tetraoxo-1H,1′H,2H,2′H,3H,3′H-[5,5′-biinden]-2-yl]-5-oxopentanoate], the inhibition at 5 µM came to 77%, the inhibition at 10 µM was 92% and the IC50 amounted to 4 µM.

For `CC(C)(C)OC(=O)N1CSC[C@H]1C(=O)C1C(=O)c2ccc(-c3ccc4c(c3)C(=O)C(C(=O)[C@@H]3CSCN3C(=O)OC(C)(C)C)C4=O)cc2C1=O` (stereo partly drawn) [Example 210, tert-butyl (4R)-4-{2′-[(4R)-3-[(tert-butoxy)carbonyl]-1,3-thiazolidine-4-carbonyl]-1,1′,3,3′-tetraoxo-1H,1′H,2H,2′H,3H,3′H-[5,5′-biindene]-2-carbonyl}-1,3-thiazolidine-3-carboxylate], the inhibition at 5 µM amounted to 62%, the inhibition at 10 µM was 94% and the IC50 is approximately 5 µM.

Consider `O=C(c1ccc2c(c1)C(=O)C(C(=O)NC1CC1)C2=O)c1ccc2c(c1)C(=O)C(C(=O)NC1CC1)C2=O` (stereo not drawn) [Example 21, 5,5′-carbonylbis(1,3-dioxo-indan-2-carboxylic acid (cyclopropyl)-amide)], for which the inhibition at 5 µM was found to be 27% and the inhibition at 10 µM was found to be 46%.

In the case of `CO[C@H](C)[C@H](N)C(=O)C1C(=O)c2ccc(C(=O)c3ccc4c(c3)C(=O)C(C(=O)[C@@H](N)[C@@H](C)OC)C4=O)cc2C1=O` (stereo partly drawn) [Example 128, 2-[(2S,3R)-2-amino-3-methoxybutanoyl]-5-{2-[(2S,3R)-2-amino-3-methoxybutanoyl]-1,3-dioxo-2,3-dihydro-1H-indene-5-carbonyl}-2,3-dihydro-1H-indene-1,3-dione], the inhibition at 5 µM came out at 51%, the inhibition at 10 µM was 87% and the IC50 came to 7.8 µM.

Turning to `O=C1c2ccc(Oc3ccc4c(c3)C(=O)C(C(=O)C3CCCC3)C4=O)cc2C(=O)C1C(=O)C1CCCC1` (stereo not drawn) [Example 251, 2-cyclopentanecarbonyl-5-[(2-cyclopentanecarbonyl-1,3-dioxo-2,3-dihydro-1H-inden-5-yl)oxy]-2,3-dihydro-1H-indene-1,3-dione], the inhibition at 1 µM was 32%, the inhibition at 3 µM is 45% and the IC50 worked out at 3 µM.

Regarding `COC(=O)c1ccccc1NC(=O)C1C(=O)c2ccc(S(=O)(=O)c3ccc4c(c3)C(=O)C(C(=O)Nc3ccccc3C(=O)OC)C4=O)cc2C1=O` (stereo not drawn) [Example 97, methyl 2-{5-[(2-{[2-(methoxycarbonyl)phenyl]carbamoyl}-1,3-dioxo-2,3-dihydro-1H-inden-5-yl)sulfonyl]-1,3-dioxo-2,3-dihydro-1H-indene-2-amido}benzoate], the inhibition at 5 µM came out at 100%, the inhibition at 10 µM was 100% and the half-maximal inhibitory concentration (IC50) was found to be 8.9 µM.

Regarding `O=C(c1ccc2c(c1)C(=O)C(C(=O)CC1CCCC1)C2=O)c1ccc2c(c1)C(=O)C(C(=O)CC1CCCC1)C2=O` (stereo not drawn) [Example 141, 2-(2-cyclopentylacetyl)-5-[2-(2-cyclopentylacetyl)-1,3-dioxo-2,3-dihydro-1H-indene-5-carbonyl]-2,3-dihydro-1H-indene-1,3-dione], the inhibition at 5 µM was determined as 38% and the inhibition at 10 µM was 68%.

One may read the IC50 as the concentration that gives 50% inhibition.
